We go through four compounds from ChEMBL document CHEMBL1201862, “PubChem BioAssay data set” (2004).

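All cell lines were grown in 96-well plates and treated with compound for 48 hours. The concentration for 50% growth inhibition is given as GI50.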 Calls of active or inactive are those of the source. Rule as the data show it: active = GI50 up to about 1.1 µM and inactive = higher.

Some test systems named below: MOLT-4; SNB-19; K562; OVCAR-5; M14; UACC-62; EKVX; T47D; HL-60; OVCAR-4; A549; IGROV-1; SNB-75; COLO 205; HT-29; 786-0; SN12C; HCC 2998; Malme-3M; SF-539.
Experiment in all cases: NCI anticancer screen, dose series, 48 h

For `COC(=O)N[C@@H]1C[C@H]2CC[C@]1(O[Si](C(C)C)(C(C)C)C(C)C)C(=O)C2`, the GI50 in the test with MOLT-4 was 24.3 µM (inactive); in the test on SNB-19, 18.1 µM (inactive); in the test on K562, > 100 µM (inactive); with OVCAR-5 it was 18.5 µM (inactive); in the test on M14, 18.5 µM (inactive); with UACC-62, 15.6 µM (inactive). The GI50 with EKVX was 15.4 µM (inactive); in the test on T47D, 19 µM (inactive); in the test on HL-60 it was 16.9 µM (inactive); in the test with OVCAR-4 it was 14.5 µM (inactive); with A549, 14.3 µM (inactive); in the test on IGROV-1, 13.6 µM (inactive). Further, the GI50 in the test on SNB-75 is 20 µM (inactive); in the test with COLO 205 it was 34.6 µM (inactive); with HT-29, 19.1 µM (inactive); with 786-0 it was 17.9 µM (inactive); in the test with SN12C, 33.5 µM (inactive).

On to `CC(=O)/C(=N\O)C(=O)Nc1ccc(Cl)cc1Cl`, for which the GI50 in the test with MOLT-4, in the test on SNB-19, in the test with K562, with OVCAR-5, in the test with M14 and in the test on UACC-62 was > 100 µM (inactive) throughout. Moreover, the GI50 in the test on EKVX, in the test on HCC 2998, in the test on Malme-3M, in the test with HL-60, with OVCAR-4 and in the test with A549 was > 100 µM (inactive) each time. For the same compound, the GI50 in the test on IGROV-1, with SF-539, in the test on SNB-75, in the test with COLO 205, with HT-29 and with 786-0 was > 100 µM (inactive) throughout. Besides, in the test on SN12C, the GI50 was > 100 µM (inactive).

For `COc1cc([C@@H]2c3cc4c(cc3[C@@H](NC(=O)c3ccc(OC(C)=O)cc3)C3COC(=O)[C@@H]32)OCO4)cc(OC)c1O` (some centres undefined), the GI50 in the test on MOLT-4 is 0.0298 µM (active); with SNB-19, 2.16 µM (inactive); in the test with K562, 2.17 µM (inactive); with OVCAR-5, 4.36 µM (inactive); in the test on M14 it was 2.56 µM (inactive); in the test on UACC-62 it was 0.547 µM (active). In addition, the GI50 in the test on EKVX is 4.18 µM (inactive); in the test on HCC 2998, 3.27 µM (inactive); with Malme-3M it was 2.43 µM (inactive); in the test on HL-60 it was 0.153 µM (active); with OVCAR-4, 39.9 µM (inactive); in the test with A549, 0.275 µM (active). Besides, the GI50 was 0.258 µM (active) in the test with IGROV-1; 0.406 µM (active) with SF-539; 1.48 µM (inactive) in the test with SNB-75; 10.2 µM (inactive) in the test on COLO 205; 5.01 µM (inactive) in the test with HT-29; 1.22 µM (inactive) in the test with 786-0. In the test with SN12C, the GI50 was 1 µM (active).

Regarding `C[C@H](NS(=O)(=O)c1ccc(NC(=O)c2ccccc2)cc1)C(=O)O`, the GI50 in the test with MOLT-4, with SNB-19, in the test on K562, in the test on OVCAR-5, with M14 and in the test on UACC-62 was > 100 µM (inactive) throughout. For the same compound, the GI50 with EKVX, in the test with HCC 2998, with Malme-3M, in the test on HL-60, in the test on OVCAR-4 and in the test with A549 was > 100 µM (inactive) throughout. In addition, the GI50 with IGROV-1, in the test with SF-539, with SNB-75, in the test with COLO 205, in the test with HT-29 and in the test with 786-0 was > 100 µM (inactive) each time. Moreover, the GI50 with SN12C is > 100 µM (inactive).
